We go through five molecules from US12146155B2, “Method for constructing human pluripotent stem cell-derived liver organoid having enhanced drug metabolic potential and liver organoid constructed by same method” (KOREA RESEARCH INSTITUTE OF CHEMICAL TECHNOLOGY, priority 2021, dated 2024).

A value given as a limit tells only on which side of the number the result lay.

The test system of data set [1] is hiPSC-derived cardiomyocytes (hiPSC-CMs) co-cultured with FC-treated S(−)-HO. Here is the method:
(§1) Specifically, the electrical activity of Cardiosight®-S (NEXEL Co., South Korea), the hiPSC-CM, was measured using an MEA system (Axion BioSystems, Maestro, US) at 37° C. and perfused with 5% CO2, 20% O2, and 75% N2. The hiPSC-CMs were first seeded in a 12-well MEA plate at the density of 4×10^4 cells per well and maintained for 7 days in a cardiomyocyte culture medium provided by NEXEL Co. to stabilize with half-mid changes performed every 2 days. One week later, the culture medium was replaced with a liver organoid differentiation medium (DM). Transwell inserts (Corning) were then placed in each well, and FC-treated S(−)-HO was seeded in the inserts, followed by culture for 3 days. On the day of compound application, the culture medium was completely removed from the wells and inserts and fresh medium was added to ensure the correct volume per well (2 m ? /well total). Cells were allowed to equilibrate for 4 hours, and online parameters were monitored to ensure a stable baseline for at least 40 minutes. The cells were exposed to cyclophosphamide at a single dose per well. After application of the drug or control (0.1% DMSO), field potentials were measured every 5 minutes for 30 seconds for 72 hours. The field potential signals were recorded and analyzed using Axion BioSystems' integrated studio (AxIS) software to measure the beating frequency and field potential duration. […]

The test system of data set [2] is HepG2. Nature of the data set: Fimasartan metabolite formation (LC-MS/MS). The note with it: 50 μM FMS for 24 hours. In kind it is in vitro ADME, human. The method, then: 70 μ ? of medium was collected at 3, 6, 12 and 24 hours, respectively, and the reaction was quenched by adding 70 μ ? of ice-cold ACN containing 100 nM BR-A-563 as an internal standard. The samples were centrifuged at 16,000 g for 10 minutes at 4° C. and the supernatant was applied to liquid chromatography-tandem mass spectrometry (LC-MS/MS). Data were normalized to protein concentration.

For data set [3], the system named is HepG2 and 2D HLC. Nature of the data set: Acetaminophen metabolite formation (LC-MS/MS). The data set is classed as in vitro ADME, human. The following applies: 10 mM APAP. The method, then: Specifically, to measure the metabolites of APAP, reactions were performed in PHH, D-HO, S-HO, HepG2, and 2D HLC treated with 10 mM APAP for 24 hours at 37° C. in 5% CO2. APAP was treated to a final volume of 0.7 m ? per well in each 24-well culture plate. 70 μ ? of medium was collected at 3, 6, 12 and 24 hours, respectively, and the reaction was quenched by adding 70 μ ? of ice-cold ACN containing 100 nM BR-A-563 as an internal standard. The samples were centrifuged at 16,000 g for 10 minutes at 4° C. and the supernatant was applied to liquid chromatography-tandem mass spectrometry (LC-MS/MS). Data were normalized to protein concentration.

In data set [4] the target is T1, MRP2 (Homo sapiens, UniProt Q92887).
T1 construct: endogenous in cells; host or cells: human iPSC-derived liver organoids (D(−)-HO, S(−)-HO)
T1 sequence (Q92887 whole entry): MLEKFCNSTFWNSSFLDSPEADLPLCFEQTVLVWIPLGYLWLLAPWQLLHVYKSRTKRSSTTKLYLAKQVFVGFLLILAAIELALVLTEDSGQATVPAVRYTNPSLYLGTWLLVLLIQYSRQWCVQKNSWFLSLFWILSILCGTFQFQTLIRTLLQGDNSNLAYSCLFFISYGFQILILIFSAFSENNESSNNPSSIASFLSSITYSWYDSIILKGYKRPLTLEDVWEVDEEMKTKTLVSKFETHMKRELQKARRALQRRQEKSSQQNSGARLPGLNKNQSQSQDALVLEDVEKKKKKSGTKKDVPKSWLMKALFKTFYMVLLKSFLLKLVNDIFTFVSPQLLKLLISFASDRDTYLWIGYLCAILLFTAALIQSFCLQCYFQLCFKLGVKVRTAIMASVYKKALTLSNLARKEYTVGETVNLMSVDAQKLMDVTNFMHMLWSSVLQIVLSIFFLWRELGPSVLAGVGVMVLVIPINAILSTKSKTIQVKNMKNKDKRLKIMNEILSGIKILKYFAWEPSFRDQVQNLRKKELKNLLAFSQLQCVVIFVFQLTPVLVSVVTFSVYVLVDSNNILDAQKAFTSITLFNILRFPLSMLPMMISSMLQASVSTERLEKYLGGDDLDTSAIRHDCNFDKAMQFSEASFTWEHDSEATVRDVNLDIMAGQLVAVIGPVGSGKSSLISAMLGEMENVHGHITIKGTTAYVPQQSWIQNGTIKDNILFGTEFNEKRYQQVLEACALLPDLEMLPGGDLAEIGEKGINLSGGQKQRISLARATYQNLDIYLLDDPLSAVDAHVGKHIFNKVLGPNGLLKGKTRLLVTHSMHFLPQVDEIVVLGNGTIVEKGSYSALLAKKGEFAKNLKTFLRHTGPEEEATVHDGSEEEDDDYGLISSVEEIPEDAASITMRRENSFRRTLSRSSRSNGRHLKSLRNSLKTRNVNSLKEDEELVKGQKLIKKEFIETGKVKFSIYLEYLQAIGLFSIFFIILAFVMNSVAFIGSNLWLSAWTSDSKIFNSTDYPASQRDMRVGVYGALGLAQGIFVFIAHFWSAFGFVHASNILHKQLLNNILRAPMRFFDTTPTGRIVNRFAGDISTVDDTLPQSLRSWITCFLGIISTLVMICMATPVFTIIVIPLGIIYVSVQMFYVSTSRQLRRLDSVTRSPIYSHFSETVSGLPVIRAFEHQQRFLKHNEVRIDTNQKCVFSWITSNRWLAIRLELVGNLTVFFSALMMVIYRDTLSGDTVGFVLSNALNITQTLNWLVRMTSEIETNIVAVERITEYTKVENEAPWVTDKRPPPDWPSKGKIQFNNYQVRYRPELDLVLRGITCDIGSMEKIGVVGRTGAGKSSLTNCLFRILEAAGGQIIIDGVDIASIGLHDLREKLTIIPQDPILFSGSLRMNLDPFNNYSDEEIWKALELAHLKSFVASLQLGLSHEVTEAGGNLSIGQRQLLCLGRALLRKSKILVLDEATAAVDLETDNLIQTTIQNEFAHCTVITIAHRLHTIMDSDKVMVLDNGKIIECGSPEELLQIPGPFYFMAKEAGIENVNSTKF
Nature of the data set: CDFDA staining of liver organoids with or without transporter inhibitor. The note with it: 2 mM probenecid for 3 hours; D(−)-HO and S(−)-HO. The data set is classed as cell-based. Here is the method: Specifically, the liver organoids were recovered on Matrigel and washed three times with DPBS. For CDFDA (5(6)-carboxy-2′,7′-dichlorofluorescein diacetate) staining, the liver organoids treated with or without 2 mM probenecid for 3 hours were stained with 10 μM CDFDA (Sigma-Aldrich) for 15 minutes at 37° C., 5% CO2. […] All samples were washed three times with DPBS, stained with Hoechst 33342, and observed under an Olympus FV3000 confocal microscope.

Data set [5] deals with hiPSC-CM not cultured with liver organoids. Nature of the data set: MEA electrophysiology of hiPSC-CMs without liver organoids. In kind it is cell-based, human. The method, then: as §1

In the case of `O=P1(N(CCCl)CCCl)NCCCO1` (stereo not drawn) [CP, Cyclophosphamide], the “field potential duration corrected by beating frequency (FPDcF)” value in data set [1] (250 μM, after 24 and 72 hours) is given as “increased”. For the same molecule, the beating rate result in data set [1] (250 and 500 μM for 24 and 72 hours, compared to hiPSC-CM alone) is “significantly reduced”.

Regarding `CCCCc1nc(C)c(CC(=S)N(C)C)c(=O)n1Cc1ccc(-c2ccccc2-c2nnn[nH]2)cc1` [FMS, Fimasartan], the “production of BR-A-535, a 3-step metabolite of FMS by CYP3A4” value in data set [2] is listed as “not observed”.

On to `CC(=O)Nc1ccc(O)cc1` [acetaminophen, Acetaminophen], for which the “APAP-GSH amount of metabolites” value in data set [3] is recorded as “no metabolites were detected”.

For `CCCN(CCC)S(=O)(=O)c1ccc(C(=O)O)cc1` [probenecid], in data set [4], the “MRP2-specific fluorescence (CDFDA) when transporter blocked” value is “accumulated in the lumen of the liver organoids”.

For `CC(C)(C)c1ccc(C(O)CCCN2CCC(C(O)(c3ccccc3)c3ccccc3)CC2)cc1` (stereo not drawn) [terfenadine, Terfenadine], the “time to spontaneous beating cessation after addition” value in data set [5] was at most 30 min.
